Test results reported in ChEMBL document CHEMBL1131875, “Selective inhibition of low affinity IgE receptor (CD23) processing: P1' bicyclomethyl substituents” (Bioorg Med Chem Lett, 1999).
pIC50: −log10 of the molar value.

How the values were obtained:
[1] = target: T1, Interstitial collagenase (Homo sapiens, UniProt P03956); assay: Inhibitory activity against matrix metalloprotease (MMP-1)
T1 sequence (P03956 whole entry): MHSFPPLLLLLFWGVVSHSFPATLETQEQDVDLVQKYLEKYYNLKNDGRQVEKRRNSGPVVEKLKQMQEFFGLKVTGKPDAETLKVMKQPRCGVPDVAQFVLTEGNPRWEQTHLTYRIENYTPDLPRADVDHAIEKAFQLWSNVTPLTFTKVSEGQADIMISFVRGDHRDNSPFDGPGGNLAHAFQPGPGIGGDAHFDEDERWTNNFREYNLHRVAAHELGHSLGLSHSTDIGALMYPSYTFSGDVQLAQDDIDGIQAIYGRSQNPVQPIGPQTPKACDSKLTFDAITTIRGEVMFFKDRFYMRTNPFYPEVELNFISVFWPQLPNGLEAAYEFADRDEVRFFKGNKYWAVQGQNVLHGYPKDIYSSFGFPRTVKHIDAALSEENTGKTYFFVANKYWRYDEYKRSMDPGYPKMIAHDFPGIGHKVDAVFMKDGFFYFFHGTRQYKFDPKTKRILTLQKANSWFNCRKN

[2] = target: T2, Stromelysin-1 (Homo sapiens, UniProt P08254); assay: Inhibition of matrix metalloprotease (MMP-3)
Target sequence in this assay (P08254 whole entry): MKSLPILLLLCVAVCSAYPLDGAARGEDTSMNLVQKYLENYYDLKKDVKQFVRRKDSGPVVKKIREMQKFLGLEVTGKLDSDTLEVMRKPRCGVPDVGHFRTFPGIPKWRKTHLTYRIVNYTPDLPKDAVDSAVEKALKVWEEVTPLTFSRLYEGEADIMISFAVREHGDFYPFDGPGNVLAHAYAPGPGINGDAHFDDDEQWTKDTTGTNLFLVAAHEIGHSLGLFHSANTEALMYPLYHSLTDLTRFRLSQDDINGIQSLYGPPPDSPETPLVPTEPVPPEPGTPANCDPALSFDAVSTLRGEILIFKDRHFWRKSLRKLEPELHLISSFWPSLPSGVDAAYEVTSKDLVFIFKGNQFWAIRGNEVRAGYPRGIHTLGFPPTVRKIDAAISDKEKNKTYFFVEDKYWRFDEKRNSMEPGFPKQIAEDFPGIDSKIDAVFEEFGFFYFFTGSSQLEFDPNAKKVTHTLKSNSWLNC

[3] = target: Matrix metalloproteinase-9 (Homo sapiens, UniProt P14780); assay: Inhibitory activity against matrix metalloprotease (MMP-9)
Matrix metalloproteinase-9, sequence (P14780 whole entry): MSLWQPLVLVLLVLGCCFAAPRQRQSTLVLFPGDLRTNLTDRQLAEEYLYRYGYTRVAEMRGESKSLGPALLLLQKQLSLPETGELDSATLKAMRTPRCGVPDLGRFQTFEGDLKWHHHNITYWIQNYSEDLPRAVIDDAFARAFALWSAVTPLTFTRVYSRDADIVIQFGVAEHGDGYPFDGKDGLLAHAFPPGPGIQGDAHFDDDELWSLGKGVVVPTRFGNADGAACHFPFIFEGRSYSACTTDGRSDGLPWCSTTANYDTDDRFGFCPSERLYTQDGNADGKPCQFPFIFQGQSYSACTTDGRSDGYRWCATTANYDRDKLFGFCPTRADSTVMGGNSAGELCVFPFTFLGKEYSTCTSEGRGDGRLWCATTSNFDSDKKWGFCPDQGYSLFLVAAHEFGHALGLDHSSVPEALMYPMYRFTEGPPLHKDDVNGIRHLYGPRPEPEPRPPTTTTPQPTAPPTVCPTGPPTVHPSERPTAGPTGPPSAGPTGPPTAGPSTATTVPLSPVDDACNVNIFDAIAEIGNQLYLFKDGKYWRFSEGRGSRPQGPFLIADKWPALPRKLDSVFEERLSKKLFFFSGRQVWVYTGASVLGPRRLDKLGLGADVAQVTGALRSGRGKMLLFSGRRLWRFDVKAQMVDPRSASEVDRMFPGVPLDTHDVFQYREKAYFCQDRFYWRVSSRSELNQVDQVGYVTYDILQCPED

[4] = target: T2, Stromelysin-1; assay: Inhibition of matrix metalloprotease (MMP-3) at 10 uM
Target sequence in this assay (P08254 100-477 limits assumed): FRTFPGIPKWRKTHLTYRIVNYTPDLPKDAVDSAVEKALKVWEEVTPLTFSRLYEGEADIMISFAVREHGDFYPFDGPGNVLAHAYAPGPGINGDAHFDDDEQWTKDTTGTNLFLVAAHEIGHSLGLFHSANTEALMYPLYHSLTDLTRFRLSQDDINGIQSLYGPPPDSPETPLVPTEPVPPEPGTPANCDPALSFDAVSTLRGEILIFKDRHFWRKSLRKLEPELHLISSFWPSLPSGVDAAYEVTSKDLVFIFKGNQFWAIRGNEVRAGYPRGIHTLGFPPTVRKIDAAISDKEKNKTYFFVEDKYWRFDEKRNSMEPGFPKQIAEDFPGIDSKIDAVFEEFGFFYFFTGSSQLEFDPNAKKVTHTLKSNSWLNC

SMILES | pIC50 [1] | pIC50 [2] | pIC50 [3] | inhibition [4] [%]
O=C(C[C@@H](Cc1ccc2ccccc2c1)C(=O)N[C@@H](Cc1ccccc1)C(=O)NCc1ccccc1)NO | < 6.00 |  |  | 
NC(=O)[C@H](Cc1ccccc1)NC(=O)C(Cc1ccc2ccc(O)cc2c1)C(O)C(=O)NO (single isomer, unassigned) | < 5.00 |  |  | 
CC(C)(C)[C@H](NC(=O)C(Cc1cnc2ccccc2c1)C(O)C(=O)NO)C(N)=O (single isomer, unassigned) | 5.30 | 5.52 | 6.72 | 
NC(=O)[C@H](Cc1ccccc1)NC(=O)C(Cc1ccc2ccccc2c1)C(O)C(=O)NO (single isomer, unassigned) | < 5.00 |  |  | 
NC(=O)[C@H](Cc1ccccc1)NC(=O)[C@H](Cc1cc2ccccc2s1)[C@H](O)C(=O)NO | 6.85 |  |  | 
NC(=O)[C@H](Cc1ccccc1)NC(=O)[C@H](Cc1nc2ccccc2s1)[C@H](O)C(=O)NO | 6.30 |  |  | 
CC(C)(C)[C@H](NC(=O)[C@H](Cc1ccc2ccc(F)cc2c1)[C@H](O)C(=O)NO)C(N)=O | < 5.00 |  |  | 
CC(C)(C)[C@H](NC(=O)C(Cc1ccc2ccccc2c1)C(O)C(=O)NO)C(N)=O (single isomer, unassigned) | < 5.00 | < 5.00 | 6.19 | 
CNC(=O)[C@H](Cc1ccccc1)NC(=O)[C@H](Cc1cc2ccccc2o1)[C@H](O)C(=O)NO | > 7.00 |  |  | 
CNC(=O)[C@H](Cc1ccccc1)NC(=O)C(Cc1ccc2ccccc2c1)C(O)C(=O)NO (single isomer, unassigned) | < 6.00 |  |  | 
CC(C)(C)[C@H](NC(=O)C(C[C@@H]1CCc2ccccc2C1)[C@H](O)C(=O)NO)C(N)=O (stereo not given in full) | 5.74 |  | 6.39 | 83
NC(=O)[C@H](Cc1ccccc1)NC(=O)[C@H](Cc1ccc2ccc(F)cc2c1)[C@H](O)C(=O)NO | < 5.00 |  |  | 
CC(C)(C)[C@H](NC(=O)C(C[C@H]1CCc2ccccc2C1)[C@H](O)C(=O)NO)C(N)=O (stereo not given in full) | 6.10 | 6.64 | 6.64 | 
NC(=O)[C@H](Cc1ccccc1)NC(=O)[C@H](Cc1ccc2cc(F)ccc2c1)[C@H](O)C(=O)NO | < 5.00 | 5.52 | 6.07 | 
CNC(=O)[C@@H](NC(=O)C(Cc1ccc2ccccc2c1)C(O)C(=O)NO)C(C)(C)C (single isomer, unassigned) | < 6.00 |  |  | 
